Results taken from patent US20220142948A1, “COMPOSITIONS AND METHODS FOR MODULATING METABOLIC REGULATORS OF T CELL PATHOGENICITY” (The Broad Institute, Inc., priority 2019, published 2022).
“Also recorded” adds a separate entry of the source.

Assays:
[1] = tested on: Th17 cells (Th17n, Th17p); assay: Protein, phospho-protein and histone mark analysis by flow cytometry; type: cell-based, mouse
Procedure: Proliferation was assessed by staining with CellTrace Violet (Thermo Fisher Scientific) per manufacturer's instructions. Apoptosis was assessed using Annexin V staining kit (BioLegend). Phosphorylation of proteins to determine cell signaling was performed with BD Phosflow buffer system (BD bioscience) as per manufacturer's instructions.
T cell differentiation culture and flow cytometry. Naïve CD4+CD44-CD62L+CD25− T cells were sorted using BD FACSAria sorter and activated with plate-bound anti-CD3 (1 μg/ml) and antiCD28 antibodies (1 μg/ml) in the presence of cytokines at a concentration of 5×10^5 cells/ml. For T cell differentiations the following combinations of cytokines were used: pathogenic Th17: 25 ng/ml rmIL-6, 20 ng/ml rmIL-1b (both Miltenyi Biotec) and 20 ng/ml rmIL-23 (R&D systems); non-pathogenic Th17: 25 ng/ml rmIL-6 and 2 ng/ml of rhTGFb1 (Miltenyi Biotec); iTreg: 2 ng/ml of rhTGFb1; Th1: 20 ng/ml rmIL-12 (R&D systems); Th2: 20 ng/ml rmIL-4 (Miltenyi Biotec). Intracellular cytokine staining was performed after incubation for 4-6h with Cell Stimulation cocktail plus Golgi transport inhibitors (Thermo Fisher Scientific) using the BD Cytofix/Cytoperm buffer set (BD Biosciences) per manufacturer's instructions. Transcription factor staining was performed using the Foxp3/Transcription Factor Staining Buffer Set (eBioscience). Proliferation was assessed by staining with CellTrace Violet (Thermo Fisher Scientific) per manufacturer's instructions. Apoptosis was assessed using Annexin V staining kit (BioLegend). Phosphorylation of proteins to determine cell signaling was performed with BD Phosflow buffer system (BD bioscience) as per manufacturer's instructions.

[2] = tested on: cellular polyamines in Th17p, Th17n and iTregs; assay: Total cellular polyamine content (enzymatic assay, Total Polyamine Assay Kit); type: cell-based, mouse
Text: Polyamine ELISA. Cell pellets of in vitro differentiated cells were frozen down and further processed with the Total Polyamine Assay Kit (BioVision Inc.) according to the manufacturer's instructions.

[3] = tested on: Th17 cells (Th17n, Th17p); assay: qPCR of in vitro differentiated T cells; type: cell-based, mouse
Procedure: qPCR. RNA was isolated using RNeasy Plus Mini Kit (Qiagen) and reverse transcribed to cDNA with iScript cDNA Synthesis Kit (Bio-Rad). Gene expression was analyzed by quantitative real-time PCR on a ViiA7 System (Thermo Fisher Scientific) using TaqMan Fast
Advanced Master Mix (Thermo Fisher Scientific) with the following primer/probe sets: Il-17a (Mm00439618_m1), Il-17f (Mm00521423_m1), Foxp3 (Mm00475162_m1), Tead1 (Mm00493507_m1), Taz (Mm00504978_m1), Sat1 (Mm00485911_g1) and Actb (Applied Biosystems). Expression values were calculated relative to Actb detected in the same sample by duplex qPCR.
qPCR. RNA was isolated using RNeasy Plus Mini Kit (Qiagen) and reverse transcribed to cDNA with iScript cDNA Synthesis Kit (Bio-Rad). Gene expression was analyzed by quantitative real-time PCR on a ViiA7 System (Thermo Fisher Scientific) using TaqMan Fast Advanced Master Mix (Thermo Fisher Scientific) with the following primer/probe sets: Ass1 (Mm00711256_m1), Odc1 (Mm02019269_g1), Sat1 (Mm00485911_g1), Srm (Mm00726089_s1), Sms (Mm00786246_s1), Il-17a (Mm00439618_m1), Il-17f (Mm00521423_m1), Foxp3 (Mm00475162_m1), Tead1 (Mm00493507_m1), Taz (Mm00504978_m1), and Actb (Applied Biosystems). Expression values were calculated relative to Actb detected in the same sample by duplex qPCR.

[4] = tested on: experimental autoimmune encephalomyelitis (EAE); assay: Adoptive transfer EAE with 2D2 TCR-transgenic Th17 cells differentiated in the presence of inhibitor; type: in vivo, mouse
Text: For adoptive transfer EAE, naïve 2D2 transgenic T cells were sorted and differentiated into Th17n cells+/−EGCG or Th17p+/−DHEA as described for three days followed by a resting phase in the presence of IL-23 alone for 2 days. Cells were then harvested and restimulated with plate-bound anti-CD3 and anti-CD28 for 2 days prior to transfer. 2-8 million cells were transferred per mouse intravenously.
For adoptive transfer EAE, naive T cells (CD4+CD44-CD62L+CD25-) were isolated from 2D2 TCR-transgenic mice and activated with anti-CD3 ([…]) and anti-CD28 ([…]) in the presence of differentiation cytokines for 68h. Cells were rested for 2 days and restimulated with plate-bound anti-CD3 (0.5 mg/ml for pathogenic condition; […] for non-pathogenic condition) and anti-CD28 ([…]) for 2 days prior to transfer. Equal number (2 to 8 million) cells were transferred per mouse intravenously.

[5] = tested on: PGAM in Th17n and Th17p cells; assay: 13C-glucose carbon tracing by LC/MS; type: cell-based, mouse
Procedure: For carbon tracing experiments Th17 cells were differentiated as described. Thereafter, cells were washed and cultured in media supplemented with 8 mM [U-13C]-glucose for 15 min or 3 hrs.
Let |Ci| be the number of carbon atoms in metabolite i, and let xc,i,j be the measured signal of metabolite i in sample j (subsequent to all normalization and QC procedures) in which there are exactly c 13C atoms. The comparisons of carbon flows are based on the statistic yi,j=(Σt=0^|C^i^|t·xt,i,j)/(|Ci|·Σt=0^|C^i^|xt,i,j)
which measures the 13C ratio of the total carbon contents for metabolite i in sample j.
To find metabolites with differential 13C relative abundance, Applicants computed the ratio yi,j of 13C out of the total carbon contents for each metabolite i in sample j. Let |Ci| be the number of carbon atoms in metabolite i, and let xc,i,j be the measured signal of metabolite i in sample j (subsequent to all normalization and QC procedures) in which there are exactly c 13C atoms.

[6] = non-pathogenic and pathogenic Th17 cells

## NCCC[C@](N)(C(=O)O)C(F)F [DFMO, 2-(difluoromethyl)ornithine]
[1]
  total Stat3 protein levels: not total Stat3 protein levels
[1]; Th17 cells
  H3K4 trimethylation: promoted
  H3K9 trimethylation: promoted
  H3K27 trimethylation: promoted
  pStat3: does not seem to alter; also recorded: did not alter; also recorded: inconsistently regulated
[1]; Th17p cells
  pStat3: decreased
[1]; both types of Th17 cells
  pFoxo1(S256): promoted
[2]; Th17n cells
  polyamine concentration: decrease; also recorded: suppression of polyamines
[2]; Th17p cells
  polyamine concentration: decrease; also recorded: suppression of polyamines
[2]; iTregs
  polyamine concentration: decrease; also recorded: suppression of polyamines
[3]
  Ass1 expression: specifically suppresses
[3]; CD4 T cells
  IL-17 (quantitative real time PCR): decreased
[3]; T cells, Th17n and Th17p
  SAT1 expression: reduces the expression; also recorded: decrease; also recorded: specifically suppresses; also recorded: decreases expression; also recorded: consistently suppressed
[3]; [6]
  relative expression of Foxp3: increase
  relative expression of IL17A: decrease
  relative expression of IL17F: decrease
[3]; pathogenic Th17 cells
  SAT1 expression: decreased expression

## epigallocatechin-3-gallate [EGCG]
[4]; EGCG on Th17n, DHEA on Th17p
  optic neuritis/perineuritis in host mice: promoted
[4]; Th17n cells with IL-23 in differentiation culture, vs IL-23+solvent
  EAE severity: significantly more severe EAE
[4]; Th17n transfer
  number of CNS lesions (meninges and parenchyma): increased number of CNS lesions
[4]; mouse, in vivo
  Wallerian degeneration in proximal spinal nerve roots: only experimental group to produce Wallerian degeneration; also recorded: induce Wallerian degeneration; also recorded: greater
[4]; recipients of EGCG-treated Th17n cells, control group 0/12
  EAE incidence rate: 10/12
[4]; vs. Control mice
  meningeal inflammation: greater meningeal inflammation
[5]; Th17n and Th17p
  13C contents of 2PG: decrease; also recorded: disturbs
[5]; Th17p
  13C ratio of 2PG after EGCG: 33%
